Results reported in US12121514B2, “Nonselective metabotropic glutamate receptor activators for treatment of attention deficit disorder and 22Q syndrome” (THE CHILDREN'S HOSPITAL OF PHILADELPHIA, priority 2015, dated 2024).

How the values were obtained:
[1] = test system: subject with ADHD, ODD and conduct disorder (CD); test: Vanderbilt CD score (items 27-40), Phase Ib trial of NFC-1; assay type: in vivo, human; settings: Subject 130
Source text: The Vanderbilt Rating Scale is a measure that can be completed by parents or teachers (separate forms, see Vanderbilt Rating Scale Parents and Vanderbilt Rating Scale Teachers). The Vanderbilt scale rates the child's behavior on items such as attention, finishing tasks, hyperactivity, difficulty waiting, and measures of conduct or oppositional […] disorders-as well as measures of overall school performance and interactions with others. The first 18 items on the Vanderbilt scale correspond to those of the ADHD Rating Scale IV above while the Vanderbilt scale also includes items 19-47 related to other mental disorders including ODD (items 19-26), conduct disorder (items 27-40), anxiety (items 41, 42, and 47), and depression (items 43-46). Each of the behavioral assessment items on the Vanderbilt Scale are rated 0, 1, 2, or 3, with 0=never occurring; 1=occasionally, 2=often, and 3=very often. Thus, the ADHD Rating Scale IV, ADHD Rating Scale V, and items 1-18 of the Vanderbilt Rating Scale are equivalent scales, while additional items on the Vanderbilt Scale assess co-morbid phenotypes and disorders. One subject screening positive for ODD (no. 130) also screened positive for conduct disorder (CD), based on scores of 2 or 3 for 3 out of the […] behaviors assessed by items 27-40 of the Vanderbilt Scale at enrollment and again at week 1. […]

[2] = test system: ADHD subjects with anxiety; test: Vanderbilt anxiety items 41, 42 and 47, Phase Ib trial of NFC-1; assay type: in vivo, human; settings: two subjects with scores of 3 on 2 of the 3 items at enrollment; week 5
Source text: The Vanderbilt Rating Scale is a measure that can be completed by parents or teachers (separate forms, see Vanderbilt Rating Scale Parents and Vanderbilt Rating Scale Teachers). The Vanderbilt scale rates the child's behavior on items such as attention, finishing tasks, hyperactivity, difficulty waiting, and measures of conduct or oppositional defiant disorders—as well as measures of overall school performance and interactions with others. The first 18 items on the Vanderbilt scale correspond to those of the ADHD Rating Scale IV above while the Vanderbilt scale also includes items 19-47 related to other mental disorders including ODD (items 19-26), conduct disorder (items 27-40), anxiety (items 41, 42, and 47), and depression (items 43-46). Each of the behavioral assessment items on the Vanderbilt Scale are rated 0, 1, 2, or 3, with 0=never occurring; 1=occasionally, 2=often, and 3=very often. Thus, the ADHD Rating Scale IV, ADHD Rating Scale V, and items 1-18 of the Vanderbilt Rating Scale are equivalent scales, while additional items on the Vanderbilt Scale assess co-morbid phenotypes and disorders.
Two subjects had maximum scores of 3 on 2 of the 3 Vanderbilt items 41, 42, and 47 that are related to anxiety at enrollment. […] One of those subjects also scored 3 on 3 of the 4 Vanderbilt items related to depression (items 43-46) at enrollment and scored 3 on all 4 items at week 1.

[3] = test system: dementia-related cognitive impairment patients; settings: cited from earlier work

For `O=C1CC[C@H](C(=O)N2CCCCC2)N1` [NFC-1, fasoracetam monohydrate], the “improvement in Vanderbilt CD score” value ([1]; week 1 to week 5) was 4 points, the “Vanderbilt CD score” value ([1]; week 5, out of 16, 16/16 at week 1) was 12 and the “scores on Vanderbilt anxiety items 41, 42 and 47” value [2] was “scored 3 on all 3 items”. For the same compound, the safety and tolerability ([3]; Phase I-III clinical trials in dementia-related cognitive impairment) was “generally safe and well tolerated”, the “effects on psychiatric symptoms” value ([3]; Phase III data, cerebral infarct patients and adult dementia patients with cerebrovascular diseases) was “beneficial effects” and the efficacy in dementia ([3]; Phase III trials) was “did not show sufficient efficacy”.
